This is an account of results in patent US7638535B2, “4-(aminomethyl)-piperidine benzamides as 5HT4-antagonists” (Janssen Pharmaceutica N.V., priority 2003, dated 2009).

SMILES strings stand for the structures.

A short description of data set [1]: Metabolic stability: % metabolism after 60 minutes incubation with active liver microsomes. It counts as in vitro ADME. The following applies: compound 5 μM, microsomes 1 mg/ml, NADPH-generating system, 60 minutes at 37 degrees Celsius; for % metabolised compound (comparative structures of WO-00/37461): compound numbers of WO-00/37461. The procedure:
Sub-cellular tissue preparations were made according to Gorrod et al. (Xenobiotica 5:453-462, 1975) by centrifugal separation after mechanical homogenization of tissue. Liver tissue was rinsed in ice-cold 0.1 M Tris-HCl (pH 7.4) buffer to wash excess blood. Tissue was then blotted dry, weighed and chopped coarsely using surgical scissors. The tissue pieces were homogenized in 3 volumes of ice-cold 0.1 M phosphate buffer (pH 7.4).
Tissue homogenates were centrifuged at 9000×g for 20 minutes at 4° C. The resulting supernatant was stored at −80° C. and is designated ‘S9’.
The S9 fraction can be further centrifuged at 100.000×g for 60 minutes (4° C.). The resulting supernatant was carefully aspirated, aliquoted and designated ‘cytosol’. The pellet was re-suspended in 0.1 M phosphate buffer (pH 7.4) in a final volume of 1 ml per 0.5 g original tissue weight and designated ‘microsomes’.
All sub-cellular fractions were aliquoted, immediately frozen in liquid nitrogen and stored at −80° C. until use.
For the samples to be tested, the incubation mixture contained PBS (0.1M), compound (5 μM), microsomes (1 mg/ml) and a NADPH-generating system (0.8 mM glucose-6-phosphate, 0.8 mM magnesium chloride and 0.8 Units of glucose-6-phosphate dehydrogenase). Control samples contained the same material but the microsomes were replaced by heat inactivated (10 minutes at 95 degrees Celsius) microsomes. Recovery of the compounds in the control samples was always 100%.
The mixtures were preincubated for 5 minutes at 37 degrees Celsius. The reaction was started at time point zero (t=0) by addition of 0.8 mM NADP and the samples were incubated for 60 minutes (t=60). The reaction was terminated by the addition of 2 volumes of DMSO. Then the samples were centrifuged for 10 minutes at 900×g and the supernatants were stored at room temperature for no longer as 24 hours before analysis. All incubations were performed in duplo. Analysis of the supernatants was performed with LC-MS analysis. Elution of the samples was performed on a Xterra MS C18 (50×4.6 mm, 5 μm, Waters, US). An Alliance 2790 (Supplier: Waters, US) HPLC system was used. Elution was with buffer A (25 mM ammoniumacetate (pH 5.2) in H2O/acetonitrile (95/5)), solvent B being acetonitrile and solvent C methanol at a flow rate of 2.4 ml/min. The gradient employed was increasing the organic phase concentration from 0% over 50% B and 50% C in 5 min up to 100% B in 1 minute in a linear fashion and organic phase concentration was kept stationary for an additional 1.5 minutes. Total injection volume of the samples was 25 μl.
A Quatro triple quadrupole mass spectrometer fitted with and ESP source was used as detector. The source and the desolvation temperature were set at 120 and 350° C. respectively and nitrogen was used as nebuliser and drying gas. Data were acquired in positive scan mode (single ion reaction). Cone voltage was set at 10 V and the dwell time was 1 second.
Metabolic stability was expressed as % metabolism of the compound after 60 minutes (equation given as example) of incubation in the presence of active microsomes (E(act))
(Liver microsomes are a subcellular fraction often used to study metabolism.)

A further data set has as its target T1, h5-HT4b (Homo sapiens, UniProt Q13639).
T1 construct: expressed in transfected cells; host or cells: HEK 293 (clone 9), membrane preparation
In words: 5HT4 antagonism: [3H]GR113808 binding to membranes of h5-HT4b-HEK 293 clone 9 cells. The conditions noted are these: displacement of [3H]GR113808 0.1 nM, h5-HT4b-HEK 293 membranes, 30 min at 25° C.; read-out: pIC50 (5HT4 antagonistic data) (converted). The method, boiled down:
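Membranes from h5-HT4b-HEK 293 clone 9 cells were incubated with [3H]GR113808 (0.1 nM as added) in 50 mM HEPES-NaOH pH 7.4 for 30 min at 25 °C. Non-specific binding was defined with a 5-HT4 agonist. Bound radioligand was separated by filtration over PEI-soaked GF/B filters.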
A general note: Loss of bound radioactivity is the signal in a displacement assay; it reports binding, not function.

T1 sequence (Q13639 whole entry): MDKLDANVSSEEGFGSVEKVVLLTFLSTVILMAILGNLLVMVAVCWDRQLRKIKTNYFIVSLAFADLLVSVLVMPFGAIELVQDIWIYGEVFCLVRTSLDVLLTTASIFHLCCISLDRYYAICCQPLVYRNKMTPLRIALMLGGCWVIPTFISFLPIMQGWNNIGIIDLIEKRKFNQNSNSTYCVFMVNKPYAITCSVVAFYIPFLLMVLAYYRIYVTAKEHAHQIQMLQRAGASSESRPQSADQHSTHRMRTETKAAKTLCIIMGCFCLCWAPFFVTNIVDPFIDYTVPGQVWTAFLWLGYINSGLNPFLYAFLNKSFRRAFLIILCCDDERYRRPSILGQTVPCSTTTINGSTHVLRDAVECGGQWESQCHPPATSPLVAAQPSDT

As for `COCCCN1CC[C@@H](CNC(=O)c2cc(C)cc3c2OCCCO3)[C@H](O)C1` (single isomer, unassigned) [compound 162], in data set [1], the “% metabolised compound (compounds of present invention)” value worked out at 9%. Besides, the IC50 at h5-HT4b is 3.09 nM.

As to `COCCCN1CC[C@@H](CNC(=O)c2cc(Cl)cc3c2OCCO3)[C@H](O)C1` [WO-00/37461 Co. No. 67, reference compound], the “% metabolised compound (comparative structures of WO-00/37461)” value in data set [1] stood at 30%.

As to `O=C(NC[C@@H]1CCN(CCCCO)C[C@H]1O)c1cc(Cl)cc2c1OCCO2` [WO-00/37461 Co. No. 68, reference compound], in data set [1], the “% metabolised compound (comparative structures of WO-00/37461)” value was found to be 10%.

With `N#CCCCN1CC[C@@H](CNC(=O)c2cc(Cl)cc3c2OCCO3)[C@H](O)C1` [WO-00/37461 Co. No. 74, reference compound], the “% metabolised compound (comparative structures of WO-00/37461)” value in data set [1] was 50.5%.

Turning to `CCCCN1CC[C@@H](CNC(=O)c2cc(Cl)cc3c2OCCCO3)[C@H](O)C1` [WO-00/37461 Co. No. 119, reference compound], the “% metabolised compound (comparative structures of WO-00/37461)” value in data set [1] was determined as 68%.

In the case of `COCCCN1CC[C@@H](CNC(=O)c2cc(Cl)cc3c2OCCCO3)[C@H](O)C1` [WO-00/37461 Co. No. 120, reference compound], in data set [1], the “% metabolised compound (comparative structures of WO-00/37461)” value turned out to be 25%.

For `CC(=O)CCCN1CC[C@@H](CNC(=O)c2cc(Cl)cc3c2OCCCO3)[C@H](O)C1` [WO-00/37461 Co. No. 121, reference compound], the “% metabolised compound (comparative structures of WO-00/37461)” value in data set [1] stood at 30%.

On to `O=C(NC[C@@H]1CCN(CC2CCCO2)C[C@H]1O)c1cc(Cl)cc2c1OCCCO2` (stereo partly drawn) [WO-00/37461 Co. No. 122, reference compound], for which the “% metabolised compound (comparative structures of WO-00/37461)” value in data set [1] was 79%.

As to `CC1(CCCN2CC[C@@H](CNC(=O)c3cc(Cl)cc4c3OCCCO4)[C@H](O)C2)OCCO1` [WO-00/37461 Co. No. 124, reference compound], the “% metabolised compound (comparative structures of WO-00/37461)” value in data set [1] was found to be 49.5%.

Consider `O=C(NC[C@@H]1CCN(CCOCCO)C[C@H]1O)c1cc(Cl)cc2c1OCCCO2` [WO-00/37461 Co. No. 128, reference compound], for which the “% metabolised compound (comparative structures of WO-00/37461)” value in data set [1] worked out at 26%.

Regarding `O=C(NC[C@@H]1CCN(CCC2OCCO2)C[C@H]1O)c1cc(Cl)cc2c1OCCCO2` [WO-00/37461 Co. No. 143, reference compound], the “% metabolised compound (comparative structures of WO-00/37461)” value in data set [1] is 63%.

With `O=C(NC[C@@H]1CCN(CCCO)C[C@H]1O)c1cc(Cl)cc2c1OCCCO2` [WO-00/37461 Co. No. 144, reference compound], the “% metabolised compound (comparative structures of WO-00/37461)” value in data set [1] is listed as 11%.

With `O=C(NC[C@@H]1CCN(CCCCO)C[C@H]1O)c1cc(Cl)cc2c1OCCCO2` [WO-00/37461 Co. No. 160, reference compound], the “% metabolised compound (comparative structures of WO-00/37461)” value in data set [1] amounted to 23%.

For the compound `COCCCN1CC[C@@H](CNC(=O)c2cc(OC)cc3c2OCCCO3)[C@H](O)C1` [compound 87], the “% metabolised compound (compounds of present invention)” value in data set [1] turned out to be 4%. The IC50 on h5-HT4b was 12.9 nM.

For `COCc1cc2c(c(C(=O)NC[C@@H]3CCN(CC4CCCO4)C[C@H]3O)c1)OCCCO2` (stereo partly drawn) [compound 125], the “% metabolised compound (compounds of present invention)” value in data set [1] was found to be 6%. For the same compound, on h5-HT4b, the IC50 was 16.2 nM.

With `COCCCN1CC[C@@H](CNC(=O)c2cc(C#N)cc3c2OCCCO3)[C@H](O)C1` [compound 158], in data set [1], the “% metabolised compound (compounds of present invention)” value is reported as 5%. In addition, on h5-HT4b, the IC50 is 10.2 nM.

Take `CCCCN1CC[C@@H](CNC(=O)c2cc(C#N)cc3c2OCCCO3)[C@H](O)C1` [compound 159]: in data set [1], the “% metabolised compound (compounds of present invention)” value is recorded as 22%. At h5-HT4b, the IC50 was 5.01 nM.

Regarding `Cc1cc2c(c(C(=O)NC[C@@H]3CCN(CCC4OCCO4)C[C@H]3O)c1)OCCCO2` [compound 163], in data set [1], the “% metabolised compound (compounds of present invention)” value is 11%. In addition, the IC50 at h5-HT4b was 2.29 nM.

Take `N#Cc1cc2c(c(C(=O)NC[C@@H]3CCN(CCCO)C[C@H]3O)c1)OCCCO2` [compound 165]: the “% metabolised compound (compounds of present invention)” value in data set [1] is 1%. Besides, on h5-HT4b, the IC50 was 15.8 nM.

`Cc1cc2c(c(C(=O)NC[C@@H]3CCN(CCCO)C[C@H]3O)c1)OCCCO2` [compound 168]: in data set [1], the “% metabolised compound (compounds of present invention)” value is reported as 4%. For the same compound, the IC50 on h5-HT4b is 2 nM.

With `CCNc1cc2c(c(C(=O)NC[C@@H]3CCN(CCCOC)C[C@H]3O)c1)OCCCO2` [compound 177], in data set [1], the “% metabolised compound (compounds of present invention)” value is reported as 4%. In addition, the IC50 on h5-HT4b is 108 nM.

Turning to `CCCCN1CC[C@@H](CNC(=O)c2cc(CC#N)cc3c2OCCCO3)[C@H](O)C1` [compound 183], in data set [1], the “% metabolised compound (compounds of present invention)” value is 10%. For the same compound, the IC50 on h5-HT4b was 3.47 nM.

In the case of `COCCCCN1CC[C@@H](CNC(=O)c2cc(CC#N)cc3c2OCCCO3)[C@H](O)C1` [compound 184], the “% metabolised compound (compounds of present invention)” value in data set [1] turned out to be 12%. The IC50 on h5-HT4b is 20 nM.

As to `COc1cc2c(c(C(=O)NC[C@@H]3CCN(CCCO)C[C@H]3O)c1)OCCCO2` [compound 185], the “% metabolised compound (compounds of present invention)” value in data set [1] is reported as 3%. The IC50 on h5-HT4b was 19.5 nM.

Take `Cc1cc2c(c(C(=O)NC[C@@H]3CCN(CCCc4ccncc4)C[C@H]3O)c1)OCCCO2` [compound 232]: on h5-HT4b, the IC50 was 0.398 nM.

As for `Cc1cc2c(c(C(=O)NC[C@@H]3CCN(CCCc4ccc(O)cc4)C[C@H]3O)c1)OCCCO2` [compound 233], the IC50 on h5-HT4b was 0.355 nM.

Regarding `COCCCCN1CC[C@@H](CNC(=O)c2cc(C)cc3c2OCCCO3)[C@H](O)C1` [compound 234], at h5-HT4b, the IC50 was 0.49 nM.

With `COCCCN1CC[C@@H](CNC(=O)c2cc(C#N)cc3c2OCCCO3)[C@H](OC)C1` [compound 235], the IC50 on h5-HT4b was 37.2 nM.

`CO[C@@H]1CN(CCCNS(C)(=O)=O)CC[C@H]1CNC(=O)c1cc(C#N)cc2c1OCCCO2` [compound 236]: the IC50 on h5-HT4b was 47.9 nM.

On to `Cc1cc2c(c(C(=O)NC[C@@H]3CCN(CCCS(C)(=O)=O)C[C@H]3O)c1)OCCO2` [compound 237], for which the IC50 at h5-HT4b was 1.45 nM.

In the case of `COCCCCN1CCC(O)(CNC(=O)c2cc(C)cc3c2OCCCO3)CC1` [compound 239], the IC50 on h5-HT4b was 19.1 nM.

On to `Cc1cc2c(c(C(=O)NCC3(O)CCN(CCCC#N)CC3)c1)OCCCO2` [compound 240], for which, at h5-HT4b, the IC50 is 45.7 nM.

As to `Cc1cc2c(c(C(=O)NC[C@H]3CCN(CCCC#N)C[C@H]3O)c1)OCCCO2` [compound 241], the IC50 at h5-HT4b is 19.5 nM.

In the case of `CCCCN1CC[C@H](CNC(=O)c2cc(C)cc3c2OCCCO3)[C@H](O)C1` [compound 242], the IC50 on h5-HT4b is 0.794 nM.

For `COCCCCN1CC[C@H](CNC(=O)c2cc(C)cc3c2OCCCO3)[C@H](O)C1` [compound 243], on h5-HT4b, the IC50 is 9.33 nM.

Consider `CCCCN1CCC(O)(CNC(=O)c2cc(C)cc3c2OCCCO3)CC1` [compound 245], for which, at h5-HT4b, the IC50 was 2.14 nM.

As for `COCCCCN1CC[C@@H](CNC(=O)c2cc(C)cc3c2OCCO3)[C@H](O)C1` [compound 248], at h5-HT4b, the IC50 was 0.224 nM.

Consider `Cc1cc2c(c(C(=O)NC[C@H]3CCN(CCCC(N)=O)C[C@H]3O)c1)OCCCO2` [compound 249], for which the IC50 at h5-HT4b is 37.2 nM.

For the compound `Cc1cc2c(c(C(=O)NC[C@@H]3CCN(CCCOC(=O)N4CCCC4)C[C@H]3O)c1)OCCCO2` [compound 250], the IC50 at h5-HT4b was 0.759 nM.

As to `COCCCN1CC[C@H](CNC(=O)c2cc(C)cc3c2OCCCO3)[C@@H](O)C1` [compound 251], the IC50 at h5-HT4b was 30.9 nM.

For the compound `N#Cc1cc2c(c(C(=O)NC[C@@H]3CCN(CCCC(N)=O)C[C@H]3O)c1)OCCCO2` [compound 252], the IC50 on h5-HT4b was 4.27 nM.

For the compound `Cc1cc2c(c(C(=O)NCC3(O)CCN(CCCC(N)=O)CC3)c1)OCCCO2` [compound 253], the IC50 on h5-HT4b was 31.6 nM.
